Laboratory results as given in patent US3956291A, “7-Thioacetamido cephalosporanic acid derivatives” (American Home Products Corporation, priority 1974, dated 1976).
In brackets after ≈: the same amount, converted by molar mass. Where two headings read alike, the source gives them in different places.

Key:
Assay in all cases: agar serial dilution test, minimum inhibitory concentration
Type in all cases: cell-based
proteus vulgaris = settings: PR VU strain 6896, read-out: Minimum Inhibitory Concentration
From the text: (§1) The compounds of this invention are useful for the treatment of bacterial infections amenable to treatment by cephalosporins. […] In accordance with the results obtained with the antibacterial compounds of this invention, their usefulness is established in the fields of comparative pharmacology and microbiology for the purpose of inhibiting the growth of undesirable bacterial colonies. […]

neisseria catarrhalis = system: neisseria catarrhalis
From the text: as §1

Staphylococcus aureus = settings: Staphylococcus aureus
From the text: as §1

escherichia coli = system: escherichia coli
From the text: as §1

bordetella brochiseptica = settings: BO BR strain 4617
From the text: as §1

bacillus subtilis = settings: Bacillus subtilis; BA SU strain 6633
From the text: as §1

herellea species = settings: HE SP strain 9955
From the text: (§2) The compounds of this invention are useful for the treatment of bacterial infections amenable to treatment by cephalosporins. […] In accordance with the results obtained with the antibacterial compounds of this invention, their usefulness is established in the fields of comparative pharmacology and microbiology for the purpose of inhibiting the growth of undesirable bacterial colonies.
(§3) The nmr spectra described in the following examples pertains to the spectra obtained upon exchanging acidic hydrogens with deuterium and are described in ppm (δ). The small amount of water and/or solvent carried into the products is readily removed by gently heating the material under vacuum. […]

escherichia intermedia = settings: Citrobacter intermedius; ES IN strain 65-1
From the text: as §2, §3

enterobacter aerogenes = settings: Klebsiella aerogenes; EN AE strain 13048
From the text: as §2, §3

salmonella paratyphi = settings: Salmonella enterica, read-out: Minimum Inhibitory Concentration
From the text: as §1

klebsiella pneumoniae = system: klebsiella pneumoniae
From the text: as §1

pseudomones aeruginosa = settings: PS AE strain 10145
From the text: as §2, §3

[1] = NE CA strain 8193, read-out: Minimum Inhibitory Concentration
[2] = read-out: Minimum Inhibitory Concentration
[3] = KL PN strain 10031, read-out: Minimum Inhibitory Concentration

SMILES	MIC (proteus vulgaris) [µg/mL]	MIC (neisseria catarrhalis; [1]) [µg/mL]	MIC (Staphylococcus aureus; ST AU strain 53-180) [µg/mL]	MIC (Staphylococcus aureus; ST AU strain 6538P) [µg/mL]	MIC (Staphylococcus aureus; ST AU strain CHP) [µg/mL]	MIC (Staphylococcus aureus; ST AU strain Smith) [µg/mL]	MIC (escherichia coli; ES CO strain 9637) [µg/mL]	MIC (bordetella brochiseptica) [µg/mL]	MIC (bacillus subtilis) [µg/mL]	MIC (herellea species) [µg/mL]	MIC (escherichia intermedia) [µg/mL]	MIC (enterobacter aerogenes) [µg/mL]	MIC (salmonella paratyphi) [µg/mL]	MIC (klebsiella pneumoniae; [2]) [µg/mL]	MIC (neisseria catarrhalis; [2]) [µg/mL]	MIC (escherichia coli; ES CO strain 920) [µg/mL]	MIC (klebsiella pneumoniae; [3]) [µg/mL]	MIC (pseudomones aeruginosa) [µg/mL]
CC(=O)OCC1=C(C(=O)O)N2C(=O)[C@@H](NC(=O)CSC(=NC#N)SCC#N)[C@H]2SC1 [Example 7, 7-[2-[(cyanoimino) (cyanomethylthio)methylthio]acetamido]cephalosporanic acid]	31.3 (≈ 66.7 µM)	31.3 (≈ 66.7 µM)	0.976 (≈ 2.08 µM)	0.488 (≈ 1.04 µM)	195 (≈ 415 µM)	0.488 (≈ 1.04 µM)	31.3 (≈ 66.7 µM)	15.6 (≈ 33.2 µM)	0.061 (≈ 0.13 µM)	31.3 (≈ 66.7 µM)	62.5 (≈ 133 µM)	7.81 (≈ 16.6 µM)						
CC(=O)OCC1=C(C(=O)O)N2C(=O)[C@@H](NC(=O)CSC(SCC#N)=C(C#N)C#N)[C@H]2SC1 [Example 2, 7-(2-[2,2-Dicyano-1-(cyanomethylthio)ethenylthio]acetamido)cephalosporanic acid]	31.3 (≈ 63.4 µM)		1.95 (≈ 3.95 µM)	0.488 (≈ 0.989 µM)	1.95 (≈ 3.95 µM)	0.488 (≈ 0.989 µM)	31.3 (≈ 63.4 µM)	62.5 (≈ 127 µM)	0.061 (≈ 0.124 µM)	250 (≈ 507 µM)			15.6 (≈ 31.6 µM)	15.6 (≈ 31.6 µM)	15.6 (≈ 31.6 µM)	250 (≈ 507 µM)		
CC(=O)OCC1=C(C(=O)O)N2C(=O)[C@@H](NC(=O)CSC(=NS(C)(=O)=O)SCC#N)[C@H]2SC1 [Example 14, 7-[2-[(cyanomethylthio)(methylsulfonylimino)methylthio]acetamido)cephalosporanic acid]	31.3 (≈ 59.9 µM)	125 (≈ 239 µM)	7.81 (≈ 14.9 µM)	1.95 (≈ 3.73 µM)	7.81 (≈ 14.9 µM)	1.95 (≈ 3.73 µM)	125 (≈ 239 µM)	62.5 (≈ 120 µM)	0.244 (≈ 0.467 µM)	250 (≈ 478 µM)			15.6 (≈ 29.9 µM)			125 (≈ 239 µM)	31.3 (≈ 59.9 µM)	125 (≈ 239 µM)
CC(=O)OCC1=C(C(=O)O)N2C(=O)[C@@H](NC(=O)CSC(=C[N+](=O)[O-])SCC#N)[C@H]2SC1 [Example 6, 7-[2-(1-Cyanomethylthio-2-nitroethenylthio)acetamido]cephalosporanic acid]	31.3 (≈ 64.1 µM)	62.5 (≈ 128 µM)	3.9 (≈ 7.98 µM)	0.976 (≈ 2 µM)	3.9 (≈ 7.98 µM)	0.976 (≈ 2 µM)	62.5 (≈ 128 µM)	125 (≈ 256 µM)	0.122 (≈ 0.25 µM)	125 (≈ 256 µM)	250 (≈ 512 µM)		7.81 (≈ 16 µM)			125 (≈ 256 µM)	62.5 (≈ 128 µM)	250 (≈ 512 µM)
CC(=O)OCC1=C(C(=O)O)N2C(=O)[C@@H](NC(=O)CSC(SCC#N)=C(C#N)c3ccccc3)[C@H]2SC1 [Example 8, 7-(2-[2-Cyano-1-(cyanomethylthio)-2-phenylethenylthio]acetamido)cephalosporanic acid]	250 (≈ 459 µM)	3.9 (≈ 7.16 µM)	0.976 (≈ 1.79 µM)	0.244 (≈ 0.448 µM)	0.976 (≈ 1.79 µM)	0.244 (≈ 0.448 µM)	25 (≈ 45.9 µM)	250 (≈ 459 µM)	0.031 (≈ 0.0569 µM)				62.5 (≈ 115 µM)	62.5 (≈ 115 µM)		250 (≈ 459 µM)		
